The target of one test is T1, MCT4 (Homo sapiens, UniProt O15427).
T1 construct: MDA-MB-231 cells—a triple negative human breast cancer cell line expressing exclusively MCT4 (confirmed by Western blotting); host or cells: MDA-MB-231
T1 sequence (O15427 2-465 limits assumed): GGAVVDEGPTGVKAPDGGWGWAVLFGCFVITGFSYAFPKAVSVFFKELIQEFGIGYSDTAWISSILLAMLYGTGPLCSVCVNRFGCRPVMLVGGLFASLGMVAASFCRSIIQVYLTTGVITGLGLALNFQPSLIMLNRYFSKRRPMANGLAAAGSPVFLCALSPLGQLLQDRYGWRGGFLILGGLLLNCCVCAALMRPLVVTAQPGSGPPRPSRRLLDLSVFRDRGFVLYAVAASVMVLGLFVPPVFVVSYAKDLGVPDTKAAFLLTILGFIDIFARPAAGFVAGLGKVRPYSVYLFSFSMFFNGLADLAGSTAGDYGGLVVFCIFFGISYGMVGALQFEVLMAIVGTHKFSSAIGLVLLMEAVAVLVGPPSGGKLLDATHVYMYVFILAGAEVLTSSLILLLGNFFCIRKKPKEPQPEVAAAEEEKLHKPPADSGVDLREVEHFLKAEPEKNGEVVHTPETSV
Description: MCT4 transport assay (L-lactate influx, BCECF-AM intracellular pH). Type of test: cell-based. The conditions noted are these: MDA-MB-231 cells expressing exclusively MCT4. As to the method:
(§1) The compounds' efficacy in both assays was determined by calculating their IC50 value (the concentration of test compound that inhibited 50% of biological activity).
(§2) MCT4 is predominantly involved in cellular efflux of lactate from the cell, preventing intracellular acidification. In the MCT4 in vitro transport system described here it was possible to drive influx of lactate in the cells and test the compounds efficacy in preventing this process. MCT1 is involved in influx-efflux of lactate, and because it is closely related to MCT4, it is a major selectivity target for MCT4 inhibitor. The MCT1 in vitro transport system described here measured the influx of lactate in the cells and ability of test compounds in preventing this process.
(§3) Tyrode's Solution pH7.4 (NaCl 119 mM; KC1 5 mM; HEPES pH7.4 25 mM; CaCl2 2 mM; MgCl2 2 mM; Glucose 6 g/L)
(§4) The following assay was performed to assess MCT4 (MDA-MB-231 cell line) or MCT1 (BT-20 cell line) activity by monitoring the intracellular pH change that accompanies lactate/proton transport using the pH-sensitive fluorescent dye BCECF-AM.
(§5) Compound preparation: The compounds were serially diluted in 100% DMSO 1:3 for 8 pts and transferred (500 nl) to a 96-well plate by Echo.
(§6) Cell preparation: Cells were briefly rinsed with 10 ml of PBS solution to remove all traces of serum, trypsinized (0.05% Trypsin-EDTA) at 25° C. for 2-3 minutes and washed twice with Tyrode's solution. The cell viability and concentration were determined using Vi-Cell. Cells were resuspended in Tyrode's solution.
(§7) Cells were loaded with the pH sensitive dye BCECF-AM (5 uM final concentration from the 30 mM DMSO stock solution) at 37° C. for 30 minutes before being washed twice to remove excess dye and resuspended to 2 million/ml cells in Tyrode's solution. Cells were seeded into a 96-well plate (200,000 cells/well) directly onto the test compound or a reference compound for 10 minutes at 37° C. Following incubation with test compounds, 25 ul of 30 mM Sodium-L-lactate was added. This addition was performed on the FlexStation III as a part of a real-time kinetic protocol. The ratio of cellular fluorescence at 535 nm after excitation at 490 nm/440 nm was measured over time for baseline (pre-lactate addition) and post-lactate addition for 60 sec with or without compounds present. Inhibitory concentration response curves were generated for compounds and their IC50 values calculated.

For another test, the target named is T2, MCT1 (Homo sapiens, UniProt P53985).
T2 construct: BT-20 cells—a triple negative human breast cancer cell line expressing exclusively MCT1 (confirmed by Western blotting); host or cells: BT-20
T2 sequence (P53985 1-500): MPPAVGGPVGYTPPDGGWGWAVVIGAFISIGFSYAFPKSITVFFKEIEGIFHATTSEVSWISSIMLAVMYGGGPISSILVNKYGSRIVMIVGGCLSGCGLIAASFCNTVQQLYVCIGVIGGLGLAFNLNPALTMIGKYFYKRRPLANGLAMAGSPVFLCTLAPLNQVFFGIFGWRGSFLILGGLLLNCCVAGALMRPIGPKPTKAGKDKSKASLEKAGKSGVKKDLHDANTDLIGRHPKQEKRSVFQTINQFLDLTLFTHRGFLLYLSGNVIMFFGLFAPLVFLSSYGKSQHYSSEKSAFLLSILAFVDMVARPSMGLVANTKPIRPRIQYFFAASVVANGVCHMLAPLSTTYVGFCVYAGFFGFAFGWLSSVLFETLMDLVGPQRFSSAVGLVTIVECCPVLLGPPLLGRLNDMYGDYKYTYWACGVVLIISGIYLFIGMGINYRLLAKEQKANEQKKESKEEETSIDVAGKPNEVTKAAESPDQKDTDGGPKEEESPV
T2 sequence (P35613 140-385 partner limits assumed): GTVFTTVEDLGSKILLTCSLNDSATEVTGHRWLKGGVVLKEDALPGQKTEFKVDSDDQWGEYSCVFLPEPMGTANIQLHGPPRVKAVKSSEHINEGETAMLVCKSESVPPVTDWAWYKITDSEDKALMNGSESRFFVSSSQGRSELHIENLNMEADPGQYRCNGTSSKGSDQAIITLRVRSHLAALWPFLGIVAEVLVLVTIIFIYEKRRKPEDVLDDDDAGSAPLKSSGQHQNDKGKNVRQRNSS
Nature of the test: MCT1 transport assay (L-lactate influx, BCECF-AM intracellular pH). Type of test: cell-based. The conditions noted are these: BT-20 cells expressing exclusively MCT1.
From the text: The following in vitro MCT4 and MCT1 transport assays were used to measure the effect of the compounds on L-lactate influx into two different cell lines: • a) MDA-MB-231 cells—a triple negative human breast cancer cell line expressing exclusively MCT4 (confirmed by Western blotting) was used for the MCT4 transport assay, • b) BT-20 cells—a triple negative human breast cancer cell line expressing exclusively MCT1 (confirmed by Western blotting) was used for the
as §1, §2
BT-20 (ATCC); Media: EMEM+10% FBS+1% PS
as §3, §4, §5, §6, §7

SMILES strings stand for the structures. pIC50: −log10 of the molar value.

The source of these data is patent US20230192704A1, “MONOCARBOXYLIC ACID TRANSPORTER 4 (MCT4) MODULATORS AND USES THEREOF” (Teon Therapeutics, Inc., priority 2020, published 2023).

Turning to `Cc1nc2nc(C)c(O[C@@H]3CCN(c4ccc(-c5ccc(C(=O)N6CC(S(C)(=O)=O)C6)nn5)cc4)C3)c(C)n2n1` [Compound 16, (R)-(3-(methylsulfonyl)azetidin-1-yl)(6-(4-(3-((2,5,7-trimethyl-[1,2,4]triazolo[1,5-a]pyrimidin-6-yl)oxy)pyrrolidin-1-yl)phenyl)pyridazin-3-yl)methanone], the negative-log IC50 (pIC50) was over 7.00 on MCT4 and under 6.00 on MCT1.

With `Cc1nc2nc(C)c(O[C@@H]3CCN(c4ccc(-c5ccc(C(=O)N6CC(C(N)=O)C6)nn5)cc4)C3)c(C)n2n1` [Compound 17, (R)-1-(6-(4-(3-((2,5,7-trimethyl-[1,2,4]triazolo[1,5-a]pyrimidin-6-yl)oxy)pyrrolidin-1-yl)phenyl)pyridazine-3-carbonyl)azetidine-3-carboxamide], the pIC50 on MCT4 was 6.00 to 6.30; against MCT1, under 6.00.

As to `Cc1nc2nc(C)c(O[C@@H]3CCN(c4ccc(-c5ccc(C(=O)N6CC(C(=O)N(C)C)C6)nn5)cc4)C3)c(C)n2n1` [Compound 18, (R)-N,N-dimethyl-1-(6-(4-(3-((2,5,7-trimethyl-[1,2,4]triazolo[1,5-a]pyrimidin-6-yl)oxy)pyrrolidin-1-yl)phenyl)pyridazine-3-carbonyl)azetidine-3-carboxamide], the negative logarithm of the IC50 (pIC50) at MCT4 is over 7.00; against MCT1, under 6.00.

Consider `Cc1nc2nc(C)c(O[C@@H]3CCN(c4ccc(-c5ccc(C(=O)N6CCOCC6)nn5)cc4)C3)c(C)n2n1` [Compound 19, (R)-morpholino(6-(4-(3-((2,5,7-trimethyl-[1,2,4]triazolo[1,5-a]pyrimidin-6-yl)oxy)pyrrolidin-1-yl)phenyl)pyridazin-3-yl)methanone], for which the pIC50 against MCT4 is over 7.00; against MCT1 it was under 6.00.

Turning to `Cc1cc2nc(C)c(O[C@@H]3CCN(c4ccc(-c5ccc(C(=O)N6CCOCC6)nn5)cc4)C3)c(C)n2n1` [Compound 20, (R)-morpholino(6-(4-(3-((2,5,7-trimethylpyrazolo[1,5-a]pyrimidin-6-yl)oxy)pyrrolidin-1-yl)phenyl)pyridazin-3-yl)methanone], the pIC50 on MCT4 is over 7.00; at MCT1, under 6.00.

Turning to `Cc1nc2nc(C)c(O[C@@H]3CCN(c4cnc(C56CC(CN7CC8(COC8)C7)(C5)C6)nc4)C3)c(C)n2n1` [Compound 21, (R)-6-((3-(5-(3-((2,5,7-trimethyl-[1,2,4]triazolo[1,5-a]pyrimidin-6-yl)oxy)pyrrolidin-1-yl)pyrimidin-2-yl)bicyclo[1.1.1]pentan-1-yl)methyl)-2-oxa-6-azaspiro[3.3]heptane], the pIC50 on MCT4 is 6.00 to 6.30; against MCT1, under 6.00.

`COC1CN(CC23CC(c4ncc(N5CC[C@@H](Oc6c(C)nc7nc(C)nn7c6C)C5)cn4)(C2)C3)C1` [Compound 22, (R)-6-((1-(2-(3-((3-methoxyazetidin-1-yl)methyl)bicyclo[1.1.1]pentan-1-yl)pyrimidin-5-yl)pyrrolidin-3-yl)oxy)-2,5,7-trimethyl-[1,2,4]triazolo[1,5-a]pyrimidine]: the pIC50 was over 7.00 at MCT4 and under 6.00 against MCT1.

In the case of `Cc1nc2nc(C)c(O[C@@H]3CCN(c4cnc(C56CC(CN7CCOCC7)(C5)C6)nc4)C3)c(C)n2n1` [Compound 23, (R)-4-((3-(5-(3-((2,5,7-trimethyl-[1,2,4]triazolo[1,5-a]pyrimidin-6-yl)oxy)pyrrolidin-1-yl)pyrimidin-2-yl)bicyclo[1.1.1]pentan-1-yl)methyl)morpholine], the negative-log IC50 (pIC50) against MCT4 was over 7.00; at MCT1, under 6.00.

`Cc1nc2nc(C)c(O[C@@H]3CCN(c4cnc(C56CC(C(=O)N7CC8(COC8)C7)(C5)C6)nc4)C3)c(C)n2n1` [Compound 24, (R)-(2-oxa-6-azaspiro[3.3]heptan-6-yl)(3-(5-(3-((2,5,7-trimethyl-[1,2,4]triazolo[1,5-a]pyrimidin-6-yl)oxy)pyrrolidin-1-yl)pyrimidin-2-yl)bicyclo[1.1.1]pentan-1-yl)methanone]: the pIC50 against MCT4 and at MCT1 was under 6.00 in each case.

Regarding `COC1CN(C(=O)C23CC(c4ncc(N5CC[C@@H](Oc6c(C)nc7nc(C)nn7c6C)C5)cn4)(C2)C3)C1` [Compound 25, (R)-(3-methoxyazetidin-1-yl)(3-(5-(3-((2,5,7-trimethyl-[1,2,4]triazolo[1,5-a]pyrimidin-6-yl)oxy)pyrrolidin-1-yl)pyrimidin-2-yl)bicyclo[1.1.1]pentan-1-yl)methanone], the pIC50 is 6.00 to 6.30 at MCT4 and under 6.00 against MCT1.

Turning to `Cc1nc2nc(C)c(O[C@@H]3CCN(c4cnc(C56CC(C(=O)N7CCOCC7)(C5)C6)nc4)C3)c(C)n2n1` [Compound 26, (R)-morpholino(3-(5-(3-((2,5,7-trimethyl-[1,2,4]triazolo[1,5-a]pyrimidin-6-yl)oxy)pyrrolidin-1-yl)pyrimidin-2-yl)bicyclo[1.1.1]pentan-1-yl)methanone], the pIC50 is 6.30 to 7.00 at MCT4 and under 6.00 against MCT1.

As for `Cc1nc2nc(C)c(O[C@@H]3CCN(c4ccc([C@H]5CC[C@H](C(=O)N6CC7(COC7)C6)CC5)cc4)C3)c(C)n2n1` [Compound 33, (2-oxa-6-azaspiro[3.3]heptan-6-yl)((1R,4r)-4-(4-((R)-3-((2,5,7-trimethyl-[1,2,4]triazolo[1,5-a]pyrimidin-6-yl)oxy)pyrrolidin-1-yl)phenyl)cyclohexyl)methanone], the pIC50 against MCT4 was over 7.00; against MCT1, under 6.00.

In the case of `COC1CN(C(=O)[C@H]2CC[C@H](c3ccc(N4CC[C@@H](Oc5c(C)nc6nc(C)nn6c5C)C4)cc3)CC2)C1` [Compound 34, (3-methoxyazetidin-1-yl)((1R,4r)-4-(4-((R)-3-((2,5,7-trimethyl-[1,2,4]triazolo[1,5-a]pyrimidin-6-yl)oxy)pyrrolidin-1-yl)phenyl)cyclohexyl)methanone], the values for the pIC50 against MCT4 and against MCT1 were over 7.00 and under 6.00, respectively.

As for `Cc1nc2nc(C)c(O[C@@H]3CCN(c4ccc([C@H]5CC[C@H](C(=O)N6CCOCC6)CC5)cc4)C3)c(C)n2n1` [Compound 35, morpholino((1R,4r)-4-(4-((R)-3-((2,5,7-trimethyl-[1,2,4]triazolo[1,5-a]pyrimidin-6-yl)oxy)pyrrolidin-1-yl)phenyl)cyclohexyl)methanone], the pIC50 at MCT4 is over 7.00; at MCT1, under 6.00.

The pIC50 is the negative decadic logarithm of the IC50, by convention in mol/L.
